The results in this text go back to US20240327379A1, “MANDELATE FORM OF 1-(4-(((6-AMINO-5-(4-PHENOXYPHENYL)PYRIMIDIN-4-YL)AMINO)METHYL)PIPERIDIN-1-YL)PROP-2-EN-1-ONE” (Sandoz AG, priority 2021, published 2024).

Data set [1] is described as follows: Thermogravimetric analysis (TGA). It counts as physicochemical. The note with it: heated from 25° C. at 10 K/min, nitrogen purge. As for the experimental part:
TGA was performed on a Mettler TGA/DSC 1 instrument. The sample (6.53 mg) was heated in a 100 microliter aluminium pan, closed with an aluminium lid, from 25 to 250° C. at a rate of 10 K/min. The lid was automatically pierced at the beginning of the measurement. Nitrogen (purge rate 30 mL/min) was used as purge gas.

Data set [2] in a line: Gravimetric moisture sorption (GMS). It counts as physicochemical. The note with it: (25±0.1)° C. The protocol:
Gravimetric moisture sorption was performed with an SPSx-1μ moisture sorption analyzer (ProUmid, Ulm). The measurement cycle was started at ambient relative humidity (RH) of 30%. RH was then decreased to 5% in 5% steps, followed by a further decrease to 3% and to 0%. […] Finally, RH was increased to ambient relative humidity of 30% in 5% steps. The time per step was set to a minimum of 2 hours and a maximum of 6 hours. If an equilibrium condition with a constant mass of =0.01% within 1 hour was reached before the maximum time for all examined samples the sequential humidity step was applied before the maximum time of 6 hours. If no equilibrium was achieved the consecutive humidity step was applied after the maximum time of 6 hours. The temperature was (25±0.1)° C.

SMILES strings stand for the structures.

With `C=CC(=O)N1CCC(CNc2ncnc(N)c2-c2ccc(Oc3ccccc3)cc2)CC1` [crystalline evobrutinib mandelate form], the “mass loss from the beginning of the measurement until about 170° C.” value in data set [1] is “about 0.1%”. For the same compound, the hygroscopic behaviour entry in data set [2] (GMS 0-90% RH) is given as “slightly hygroscopic”. Further, in data set [2] (GMS cycle 0-90% RH, PXRD after the experiment), the “physical stability during moisture sorption/desorption (hysteresis, PXRD after the experiment)” value is listed as “no structural changes appear during the experiment”. The “mass difference in the sorption cycle between 0 and 80% RH” value in data set [2] (GMS sorption cycle, 0 to 80% RH) is on record as “about 0.5 w-%”. Further, the “maximum uptake between 0 and 90% RH” value in data set [2] (GMS, 0 to 90% RH) was “about 0.6%”.
